{
  "source": "patent US5506354A",
  "about": "“Imidazolylpiperazinyl steroids” (The Upjohn Company, priority 1992, dated 1996)",
  "note": "Where a name gives a salt, the structure may show the parent alone.",
  "data": [
    {"tested_on": "angiogenesis", "assay": "Chick embryo assay of Folkman (inhibition of angiogenesis / tumor growth)", "format": "in vivo", "conditions": "50 μg/10 μl in the presence of heparin", "experimental": "According to this procedure compounds which are considered to be \"active\" (i.e. antiangiogenic) give an avascular zone of 4 mm or greater in some embryos when tested at 50 μg/10 μl in the presence of 50 μg/10μ of heparin.", "units": {"% of Embryos with 4 mm or Greater Avascular Zone": "%"}, "values": [
      {"smiles": "CC(C)(C)CC(=O)O[C@@H]1C[C@@]2(C)[C@@H](CC[C@]2(O)C(=O)CN2CCN(c3ccccn3)CC2)[C@@H]2CCC3=CC(=O)CC[C@]3(C)[C@H]21", "note": "[Example 28, 11α,17α-Dihydroxy-21-[4-(2-pyridinyl)-1-piperazinyl]pregn-4-ene-3,20-dione 11-(3,3-dimethyl-1-butyratedihydrochloride]", "% of Embryos with 4 mm or Greater Avascular Zone": 73},
      {"smiles": "COc1ccc(CCNCC(=O)[C@@]2(O)CC[C@H]3[C@@H]4C[C@H](C)C5=CC(=O)C=C[C@]5(C)[C@H]4[C@@H](O)C[C@@]32C)cc1OC", "note": "[Example 34, 11β,17α-dihydroxy-21-[[2-(3,4-dimethoxy-phenyl)ethyl]amino]-6α-methylpregna-1,4-diene-3,20-dione hydrochloride]", "inhibition of angiogenesis (activity in words)": "demonstrate inhibition of angiogenesis"},
      {"smiles": "COc1ccc(N2CCN(CC(=O)[C@@]3(O)CC[C@H]4[C@@H]5CCC6=CC(=O)CC[C@]6(C)[C@H]5[C@H](OC(=O)CC(C)(C)C)C[C@@]43C)CC2)cc1", "note": "[Example 32, 11α,17α-dihydroxy-21-[4-(4-methoxyphenyl)-1-piperazinyl]pregn-4-ene-3,20-dione 11-(3,3-dimethyl-1-butyrate) dihydrochloride]", "inhibition of angiogenesis (activity in words)": "demonstrate inhibition of angiogenesis"},
      {"smiles": "C[C@H]1C[C@H]2[C@@H]3CC[C@H]4CC(=O)CC[C@]4(C)C3=CC[C@]2(C)[C@@]1(O)C(=O)CN1CCN(c2ccccn2)CC1.Cl.Cl.O", "note": "[Example 44, 17α-hydroxy-16β-methyl-21-[4-(2-pyridinyl)-1-piperazinyl]-5α-pregn-9(11)-ene-3,20-dione dihydrochloride hydrate]", "% of Embryos with 4 mm or Greater Avascular Zone": 75},
      {"smiles": "CCN(CC)c1cc(N2CCN(CC(=O)[C@@]3(O)CC[C@H]4[C@@H]5CCC6=CC(=O)CC[C@]6(C)C5=CC[C@@]43C)CC2)nc(N(CC)CC)n1", "note": "[Example 16, 17α-Hydroxy-21-[4-[2,6-bis(diethylamino)pyrimidinyl]-1-piperazinyl]pregna-4,9(11)-diene-3,20-dione dihydrochloride hydrate]", "% of Embryos with 4 mm or Greater Avascular Zone": 91},
      {"smiles": "C[C@]12CCC(=O)C=C1CC[C@@H]1C2=CC[C@@]2(C)[C@H]1CC[C@]2(O)C(=O)CN1CCN(c2cc(N3CCCC3)nc(N3CCCC3)n2)CC1", "note": "[Example 64, 17α-hydroxy-21-[4-[2,6-bis(1-pyrrolidinyl)-4-pyrimidinyl]-1-piperazinyl]-pregna-4,9(11)-diene-3,20-dione (E)-2-butenedioate (1:1) salt]", "inhibition of angiogenesis (activity in words)": "demonstrate inhibition of angiogenesis"},
      {"smiles": "C[C@]12CCC(=O)C=C1CC[C@@H]1[C@@H]2C(=O)C[C@@]2(C)[C@H]1CC[C@]2(O)C(=O)CN1CCN(c2ccccn2)CC1", "note": "[Example 20]", "% of Embryos with 4 mm or Greater Avascular Zone": 72, "inhibition of angiogenesis (activity in words)": "demonstrate inhibition of angiogenesis"},
      {"smiles": "CCN(CC)c1cc(N2CCN(CC(=O)[C@@]3(O)CC[C@H]4[C@@H]5C[C@H](C)C6=CC(=O)C=C[C@]6(C)C5=CC[C@@]43C)CC2)nc(N(CC)CC)n1", "note": "[Example 63, 21-[4-[2,6-bis(diethylamino)-4-pyrimidinyl]-1-piperaz-inyl]-17α-hydroxy-6α-methylpregna-1,4,9(11)-triene-3,20-dione (E)-2-butenedioate (1:1) salt]", "inhibition of angiogenesis (activity in words)": "demonstrate inhibition of angiogenesis"},
      {"smiles": "C[C@]12CCC(=O)C=C1CC[C@@H]1C2=CC[C@@]2(C)[C@H]1CC[C@]2(O)C(=O)CN1CCN(C(=O)c2ccco2)CC1", "note": "[Example 6B, 17α-Hydroxy-21-[4-(2-furonylcarbonyl)-1-piperazinyl]pregna-4,9(11)-diene-3,20-dione]", "inhibition of angiogenesis (activity in words)": "demonstrate inhibition of angiogenesis"},
      {"smiles": "COc1ccc(N2CCN(CC(=O)[C@@]3(O)CC[C@H]4[C@@H]5C[C@H](C)C6=CC(=O)C=C[C@]6(C)[C@H]5[C@@H](O)C[C@@]43C)CC2)cc1", "note": "[Example 33, 11β,17α-dihydroxy-21-[4-(4-methoxyphenyl)-1-piperazinyl]-6α-methylpregna-1,4-diene-3,20-dione dihydrochloride]", "inhibition of angiogenesis (activity in words)": "demonstrate inhibition of angiogenesis"},
      {"smiles": "C[C@]12C[C@@H](O)[C@H]3[C@@H](CCC4=CC(=O)CC[C@@]43C)[C@@H]1CC[C@@H]2C(=O)CN1CCN(c2ccccn2)CC1.Cl.Cl", "note": "[Example 36, 11α-hydroxy-21-[4-(2-pyridinyl)-1-piperazinyl]-pregn-4-ene-3,20-dione dihydrochloride]", "inhibition of angiogenesis (activity in words)": "demonstrate inhibition of angiogenesis"},
      {"smiles": "C[C@]12CC[C@@H](O)C[C@H]1CC[C@@H]1[C@@H]2C(=O)C[C@@]2(C)[C@H]1CC[C@]2(O)C(=O)CN1CCN(c2ccccn2)CC1", "note": "[Example 99, 3α,17α-dihydroxy-21-[4-(2-pyridinyl)-1-piperazinyl]-5β-pregnane-11,20-dione dihydrochloride hydrate]", "inhibition of angiogenesis (activity in words)": "demonstrate inhibition of angiogenesis"}
    ]},
    {"tested_on": "arachidonic acid", "assay": "Arachidonic Acid Antagonism Assay (AAAA), LD50 of sodium arachidonate", "format": "in vivo, Charles River male CF-1 mice", "conditions": "100 mg/kg; test compound IV", "experimental": "(§1) Since these metabolites contribute to the pathological problems associated with stroke, spinal trauma and head injury, compounds which antagonize arachidonic acid are useful in treating stroke, spinal trauma and head injury.\n(§2) While not necessary to determine arachidonic acid antagonism, the above assay has been modified as follows: Charles River male CF-1 mice weighing 18-22 g are treated IV with the test compound dissolved in 1.0% Tween-80 and 0.1% hydrochloric acid in distilled water, 0.2 ml total volume. Fifteen minutes later sodium arachidonate (90% pure) in physiological (normal) saline is injected into the tail vein. The LD50 is measured using the Spearman-Karber method with a log dose interval of 0.05 (N=6). Compounds which elevate the LD50 outside of the 95% confidence interval of the control LD50 are considered to be \"active\".", "units": {"% of Control LD50 100 mg/kg": "%"}, "values": [
      {"smiles": "CCN(CC)c1cc(N2CCN(C(=O)[C@@]3(O)CC[C@H]4[C@@H]5CCC6=CC(=O)CC[C@]6(C)[C@H]5CC[C@@]43C)CC2)nc(N(CC)CC)n1", "note": "[Example 57]", "% of Control LD50 100 mg/kg": 124}
    ]},
    {"tested_on": "arachidonic acid", "assay": "Arachidonic Acid Antagonism Assay (AAAA), LD50 of sodium arachidonate", "format": "in vivo, Charles River male CF-1 mice", "conditions": "test compound IV 15 min before sodium arachidonate; LD50 outside 95% confidence interval of control", "experimental": "as §1, §2", "values": [
      {"smiles": "C[C@]12CCC(=O)C=C1CC[C@@H]1[C@@H]2[C@H](O)C[C@@]2(C)[C@H]1CC[C@]2(O)C(=O)CN1CCN(c2ccc(F)cc2)CC1", "note": "[Example 29, 21-[4-(4-fluorophenyl)-1-piperazinyl]-11α,17α-dihydroxypregn-4-ene-3,20-dione dihydrochloride]", "arachidonic acid antagonism (activity in words)": "demonstrate arachidonic acid antagonism"},
      {"smiles": "CN1CCN(c2cc(N3CCN(CC(=O)[C@@]4(O)CC[C@H]5[C@@H]6CCC7=CC(=O)CC[C@]7(C)C6=CC[C@@]54C)CC3)nc(N3CCN(C)CC3)n2)CC1", "note": "[Example 19, 17α-Hydroxy-21-[4-[2,6-bis(4-methyl-1-piperazinyl)A-pyrimidinyl]-1-piperazinyl]-pregna-4,9(11)-diene-3,20-dione methanesulfonate hydrate]", "arachidonic acid antagonism (activity in words)": "demonstrate arachidonic acid antagonism"},
      {"smiles": "COc1ccc(CCN(CC(=O)[C@@]2(O)CC[C@H]3[C@@H]4CCC5=CC(=O)CC[C@]5(C)C4=CC[C@@]32C)Cc2ccc(N(C)C)cc2)cc1OC", "note": "[Example 51, 17α-hydroxy-21-[[2-(3,4-dimethoxyphenyl)ethyl]-4-(dimethylamino)-phenyl]methyl]amino]pregna-4,9(11)-3,20-dione hydrochloride]", "arachidonic acid antagonism (activity in words)": "demonstrate arachidonic acid antagonism"},
      {"smiles": "C[C@]12C=CC(=O)C=C1CC[C@@H]1C2=CC[C@@]2(C)[C@H]1CC[C@]2(O)C(=O)CN1CCN(c2cc(N3CCCC3)nc(N3CCCC3)n2)CC1.Cl.Cl.O", "note": "[Example 74, 17α-hydroxy-21-[4-[2,6-di-(1-pyrrolidinyl)-4-pyrimidinyl]-1-piperazinyl] pregna-1,4,9(11)-triene-3,20-dione dihydrochloride hydrate]", "arachidonic acid antagonism (activity in words)": "demonstrate arachidonic acid antagonism"},
      {"smiles": "C[C@]12CCC(=O)C=C1CC[C@@H]1C2=CC[C@@]2(C)[C@H]1CC[C@]2(O)C(=O)CN1CCOCC1", "note": "[Example 93, 17α-hydroxy-21-(4-morpholino)-pregna4,9(11)-diene-3,20-dione (E)-2-butanedioate (1:1) salt]", "arachidonic acid antagonism (activity in words)": "demonstrate arachidonic acid antagonism"},
      {"smiles": "CCN(CC)c1cc(N2CCN(C(=O)[C@@]3(O)CC[C@H]4[C@@H]5CCC6=CC(=O)CC[C@]6(C)[C@H]5CC[C@@]43C)CC2)nc(N(CC)CC)n1", "note": "[Example 57]", "arachidonic acid antagonism (activity in words)": "demonstrate arachidonic acid antagonism"},
      {"smiles": "C=CCNc1nc(NCC=C)nc(N2CCN(CC(=O)[C@@]3(O)CC[C@H]4[C@@H]5CCC6=CC(=O)CC[C@]6(C)C5=CC[C@@]43C)CC2)n1.Cl.Cl.O", "note": "[Example 60, 17α-hydroxy-21-[4-[4,6-bis(2-propenylamino)-1,3,5-triazin-2-yl]-1-piperazinyl]pregna-4,9(11)-diene-3,20-dione dihydrochloride hydrate]", "arachidonic acid antagonism (activity in words)": "demonstrate arachidonic acid antagonism"},
      {"smiles": "CCN(CC)c1cc(N2CCN(CC(=O)[C@@]3(O)CC[C@H]4[C@@H]5CCC6=CC(=O)CC[C@]6(C)[C@H]5CC[C@@]43C)CC2)nc(N(CC)CC)n1", "note": "[Example 53, 21-[4-[2,6-bis(diethylamino)4-pyrimidinyl]-1-piperazinyl]-17α-hydroxypregn-4-ene-3,20-dione]", "arachidonic acid antagonism (activity in words)": "demonstrate arachidonic acid antagonism"},
      {"smiles": "C[C@]12CCC(=O)C=C1CC[C@@H]1C2=CC[C@@]2(C)[C@H]1CC[C@]2(O)C(=O)CN1CCN(Cc2ccccn2)CC1", "note": "[Example 54, 17α-hydroxy-21-[4-(2-pyridinylmethyl)-1-piperazinyl]-pregna-4,9(11)-diene-3,20-dione (E)-2-butenedioate 1:1 salt]", "arachidonic acid antagonism (activity in words)": "demonstrate arachidonic acid antagonism"},
      {"smiles": "C[C@]12CC(=O)[C@H]3[C@@H](CCC4=CC(=O)CC[C@@]43C)[C@@H]1CC[C@@H]2C(=O)CN1CCN(c2ccccn2)CC1.Cl.O", "note": "[Example 45, 21-[4-(2-pyridinyl)-1-piperazinyl]pregn-4-ene-3,11,20-trione hydrochloride hydrate]", "arachidonic acid antagonism (activity in words)": "demonstrate arachidonic acid antagonism"},
      {"smiles": "CCN(CC)c1cc(N2CCN(CC(=O)[C@@]3(O)CC[C@H]4[C@@H]5CCC6=CC(=O)C=C[C@]6(C)C5=CC[C@@]43C)CC2)nc(N(CC)CC)n1.Cl.Cl.O", "note": "[Example 75, 21-[4-[2,6-bis(diethylamino)4-pyrimidinyl]-1-piperazinyl]-17α-hydroxypregna-1,4,9(11)-triene-3,20-dione dihydrochloride hydrate]", "arachidonic acid antagonism (activity in words)": "demonstrate arachidonic acid antagonism"}
    ]}
  ]
}
